The subject of one series is thymidylate synthesis. The settings on record: Heidelberger 1983; cited from earlier work.
Series [1] concerns Plasmodium falciparum, Indochina clone W2. Nature of the series: microbe, parasite or virus in culture. To be noted: for IC50: Plasmodium falciparum; for Molar Index: Indochina clone, equimolar activity of 5-fluoroorotate relative to the conventional drug. The protocol:
In the antimalarial experiment with parasites, incorporation of radioactivity from [G-^3 H]-hypoxanthine into nucleic acids served as a measure of parasite proliferation. […] Each data point represents an average of two determinations. In the study of toxicity to human cells, proliferation of cells was determined directly by measuring the number of viable cells per well. […] Each data point represents an average of two determinations. 5-fluoro-orotate (.circle-solid.), 5-fluorouracil (.box-solid.), 5-fluorouridine (.tangle-solidup.), and 5-fluoro-2'-deoxyuridine (.diamond-solid.).
(§1) Half shaded symbols represent overlapping data points.
(§2) 3. Effects of pyrimidine analogues alone or in combination with normal pyrimidine bases or nucleosides or with amino acid derivatives can be tested in malaria parasite-infected erythrocytes. Varying concentrations of pyrimidine analogues in culture medium are added to individual wells of microtitre plates [Desjardins, R. E. et al., Antimicrob. […] Parasitemic erythrocytes in culture medium are added to each well. […] As an alternative to adding a radioactive precursor of nucleic acid biosynthesis, the end point for determining the effects of added drugs can be the incorporation of a radioactive amino acid, e.g., [U-^14 C]-isoleucine, into parasite protein.
Fluoropyrimidines, dispersed in 25 μl of culture medium, were added to individual wells of a 96-well microtitre plate. […] Finally, the incorporation of 0.5 μCi of [G-^3 H]hypoxanthine (1 Ci/mmol) into nucleic acids in each well was determined; this served as a measure of parasite proliferation.

Series [2] concerns HT-1080 human fibrosarcoma cells. Nature of the series: Toxicity to cultured HT-1080 cells, number of viable cells. Type of series: cell-based. The settings on record: Homo sapiens, HT-1080, 48 h. The procedure: Each data point represents an average of two determinations. […] Each data point represents an average of two determinations.
as §1
Toxicity of pyrimidine analogues to cultured human cells is determined as follows. Mammalian cells are seeded into culture plate wells, and growth medium is added. The following day, fresh culture medium containing the appropriate pyrimidine analogues is added to the wells, and the plates incubated for a period of time and at a temperature appropriate to the cell line and the experimental requirements. Thereafter, the number of cells in each well is determined. […] Cells that grow in suspension (e.g., HL-60 and L-1210 cells) are transferred to centrifuge tubes, pelleted at low speed, washed, and the viability determined as above.
HT-1080 cells were seeded into 6-well culture plates at a density of 50,000 cells per 9.6 cm^2 well. Each well contained 2.5 ml of growth medium. […] After 1 minute, the detached cells were suspended in 1.0 ml of EMEM and collected by centrifugation at 300×g for 3 minutes. […] The concentrations of viable cells were determined in a hemocytometer.

Series [3] relates to Plasmodium falciparum, Sierra Leone clone D6. Kind of series: Inhibition of P. falciparum proliferation, [G-3H]-hypoxanthine incorporation, Sierra Leone clone D6 (chloroquine-sensitive). It counts as cell-based. The settings on record: Sierra Leone clone; for IC50: Plasmodium falciparum, D6, Table 1, mean ± S.D. of five independent drug response curves; for Molar Index: equimolar activity of 5-fluoroorotate relative to the conventional drug. The procedure: as §2
Fluoropyrimidines, dispersed in 25 μl of culture medium, were added to individual wells of a 96-well microtitre plate. […] Finally, the incorporation of 0.5 μCi of [G-^3 H]hypoxanthine (1 Ci/mmol) into nucleic acids in each well was determined; this served as a measure of parasite proliferation. […] In a second method, the increase in parasitemia was determined directly by smearing infected erythrocytes on microscope slides, staining with Giemsa stain, and determining the ratio of infected to non-infected erythrocytes. In a third method, parasite-infected erythrocytes were incubated with [U-^14 C]-isoleucine (0.5 μCi; 0.33 Ci/mmol), and the amount of radioactivity incorporated into precipitable proteins determined.

The conditions of series [4]: cited from earlier work.
For another series, the system named is P. yoelii. Kind of series: Anti-malarial activity in P. yoelii-infected mice. Type of series: in vivo, P. yoelii in Swiss white mice. The settings on record: experiment 2 control, 800 mg/kg uridine alone. The procedure: FIG. 4 illustrates the effect of 5-fluoro-orotate treatment on blood parasitemia. Mice infected with P. yoelii on day 0 in experiments 1 and 2 were treated with (A) 0.2 mg/kg 5-fluoro-orotate, (B) 1 mg/kg, or (C) 5 mg/kg every 4 hours for three days. Control mice (.largecircle., .circle-solid., respectively), received no drug. Open symbols represent treatment without uridine (experiment 1: .smallcircle., .quadrature., .diamond., Δ), and filled symbols represent animals also treated with uridine (experiment 2: .circle-solid., .box-solid., .diamond-solid., .tangle-solidup.). Animals were treated with 5-fluoro-orotate on days 3 to 6. Animals were also treated with uridine in experiment 2 on days 3 to 9.
FIG. 5 illustrates the survival rate of mice infected with P. yoelii and treated with 5-fluoro-orotate, alone or in combination with uridine. Mice were treated with (A) 0.2 mg/kg 5-fluoro-orotate, (B) 1 mg/kg, or (C) 5 mg/kg. Control mice received no 5-fluoro-orotate (.largecircle., .circle-solid., respectively). Open symbols represent treatment without uridine (experiment 1: .largecircle., .quadrature., .diamond., Δ), and closed symbols represent animals also receiving uridine (experiment 2: .circle-solid., .box-solid., .diamond-solid., .tangle-solidup.).
A second in vivo test system can be used to determine if repeated administration of the pyrimidine analogue would have safe anti-malarial activity. In this test system, groups of animals are infected with malaria parasites. At a time when blood parasitemia is reached, the animals are injected with saline alone (control) or with various concentrations of one or more pyrimidine analogues alone or together with one or more rescuing pyrimidine bases or nucleosides at a single concentration, at intervals, over a period of several days. In order to determine the prophylactic effectiveness of the rescuing pyrimidine base or nucleoside, the animals are pretreated with such a base or nucleoside prior to the administration of the pyrimidine analogue. Anti-malarial activity of the treatments is estimated by determining blood parasitemia on the animals at appropriate times. The safety of the treatments is estimated by monitoring animals for weight loss and diarrhea, as these are early symptoms of pyrimidine analogue toxicity [Houghton, J. A., et al., Cancer Res., 39:2406-13 (1979)].
Swiss white mice (25-30 g) were divided into groups of five. On day 0, each mouse was infected by intraperitoneal injection of 10^5 erythrocytic forms of P. yoelii. Starting on day 3, when the blood parasitemia had reached between 5 and 12%, the mice were injected intraperitoneally every 4 hours for three consecutive days with 200 μl of various formulations. […]

Setting [5] is: text value (FIG. 1B), read-out: IC50.

Read-outs that look alike come from different tables or passages of the source.

As for `O=c1[nH]c(=O)n([C@H]2C[C@H](O)[C@@H](COP(=O)(O)O)O2)cc1F` [5-fluoro-2'-deoxy-uridylate], the “inhibition of thymidylate synthesis” value in the series with thymidylate synthesis is recorded as “potent enzyme-activated inhibitor of thymidylate synthesis”.
A word on the IC50: it is the point on the concentration scale where inhibition reaches its midpoint. For `O=c1[nH]c(=O)n([C@H]2C[C@H](O)[C@@H](CO)O2)cc1F` [5-fluoro-2'-deoxyuridine, reference compound], the half-inhibitory concentration (IC50) is 100000 nM in series [1] (W2, 48 h) and 10 nM in series [2] (setting [5]).
`O=c1[nH]cc(F)c(=O)[nH]1` [5-fluoro-uracil, reference compound]: the IC50 in series [1] (W2, 48 h) stood at 12000 nM; in series [2] (read-out: IC50 (50% inhibition)), 2000 nM.
Regarding `O=c1[nH]c(=O)n([C@@H]2O[C@H](CO)[C@@H](O)[C@H]2O)cc1F` [5-fluoro-uridine, reference compound], the half-inhibitory concentration (IC50) is 32000 nM in series [1] (W2, 48 h) and 30 nM in series [2] (setting [5]).
For the compound `CCN(CC)CCCC(C)Nc1ccnc2cc(Cl)ccc12` (stereo not shown) [Chloroquine], the “Molar Index” value in series [1] worked out at 21; in series [3], 1.6. Moreover, the values for the IC50 in series [1] (W2) and in series [3] were 127 ± 23 nM and 9 ± 1.7 nM, respectively. Besides, the “tolerability, oral” value in series [4] (oral) is reported as “typically is well-tolerated”. Besides, the “safety, parenteral” value in series [4] (parenteral, children) is “may cause cardiac arrhythmia and sudden death in children”.
Regarding `CCc1nc(N)nc(N)c1-c1ccc(Cl)cc1` [Pyrimethamine], the “Molar Index” value came out at 19 in series [1] and 0.04 in series [3]. For the same compound, the IC50 in series [1] (W2) was 111 ± 29 nM; in series [3] (read-out: IC50), 0.24 ± 0.16 nM.
For `COc1ncnc(NS(=O)(=O)c2ccc(N)cc2)c1OC` [Sulfadoxine], in that order: 4344, 13.5, 25600 ± 7080 nM and 76.2 ± 13.2 nM.
`O=c1ccn([C@@H]2O[C@H](CO)[C@@H](O)[C@H]2O)c(=O)[nH]1` [uridine, reference compound]: in the series with P. yoelii, the “mortality, uridine alone” value is recorded as “all succumbed to P. yoelii”.

These data come from US6159953A, “Anti-malarial composition and method of use” (Catholic University of America, priority 1992, dated 2000).
